Measurements: article PMC12668308, “A Novel Antimalarial Agent that Inhibits Protein Synthesis in Plasmodium falciparum” (Angewandte Chemie (International Ed. in English), 2025)
Read-outs that look alike come from different tables or passages of the source.

Experiments:
[1] = test system: NF54/iGP1_RE9H^ulg8 stage V gametocytes; assay: Dose-response assay on gametocytes, MitoTracker-based readout; type: cell-based, Plasmodium falciparum
Excerpt: Compound 31 was also found to be active against the sexual stage of P. falciparum using the MitoTracker‐based readout. This readout is based on quantifying MitoTracker‐based gametocyte viability as recently described.^[ [7] ^] Briefly, high content imaging of MitoTracker‐ and Hoechst‐stained cells and automated image analysis using the MetaXpress software was used to determine the number of viable gametocytes based on mitochondrial activity and cellular shape.
Sexual commitment was induced in the NF54/iGP1_RE9H^ulg8 parasite line as described in ^[18,^52]. Synchronous ring stage cultures at 2-3% parasitemia (8-16 hpi) were grown for 48 hours in a culture medium lacking D-(+)-glucosamine hydrochloride (GlcN) and containing 1.25 µM Shield-1 to induce GDV1-GFP-DD expression. The induction medium was replaced with standard culture medium containing 50 mM N-acetyl-glucosamine (GlcNAc) for six consecutive days.) to selectively kill asexual parasites.^[53^,54^] Gametocytes were maintained in standard culture medium from day 7 onwards. During the first seven days of gametocyte development, the culture medium was exchanged daily and every second day subsequently. Visual inspection of Hemacolor-stained thin blood smears with a 100x immersion oil objective (total magnification = 1000x) was performed to assess gametocytemia.
Dose response assays were performed in biological triplicates, each in technical duplicate, as described in ^[18, ^55]. Synchronous NF54/iGP1_RE9H^ulg8 gametocyte cultures were resuspended at ~2% gametocytemia in an assay medium at 3% haematocrit. […] MitoTracker-based gametocyte viability was quantified using a modified version of published protocols.^[56^,57^] […] After imaging two technical replicates, the results were averaged and normalized to the plateau of sub-lethal compound concentrations using the “first mean in each data set” function and IC50 values were calculated using nonlinear, four parameter (variable slope) curve fitting in GraphPad Prism (version 8.3.0).

3D7^WT = assay: [3H]-hypoxanthine incorporation assay; type: cell-based; settings: Plasmodium falciparum, 3D7; 72-h assay; mean±s.d.; read-out: 3D7^WT IC50
Protocol: ^[a] 72-h [^3H] hypoxanthhine incorporation assay; Data is expressed as mean±s.d.. The assay was performed in three independent biological experiments, each in biological duplicates.
P. falciparum asexual blood stage parasites were cultured in human red blood cells (RBC, Blutspende SRK, Zurich) at a hematocrit of 5% in RPMI 1640 medium. The RPMI 1640 medium (ThermoFisher Scientific #51800−043) was supplemented with the following: 24 mM NaHCO3 (pH 7.3, Sigma-Aldrich #31437−500G-R), 25 mM Hepes (Sigma-Aldrich #H4034−500G), 0.36 mM hypoxanthine (Sigma-Aldrich # H9377−25G), 100 µg mL^-1 neomycin (Sigma-Aldrich #N6386−100G) and 0.5% Albumax II (Thermo Fisher #11021−045). Additionally, 2 mM choline chloride (279 mg/L, Sigma-Aldrich #C7527−100G) was added to the culture to block the induction of sexual commitment as described. ^[31^] The RPMI 1640 medium and components were dissolved in water (Milli-Q purified), stirred for at least 3 h, and then sterile filtered (0.22 μm pore size) with a bottle top filter (Corning # 431118). Parasite cultures were maintained in an atmosphere of 3% O2, 4% CO2, and 93% N2 in air-tight chambers at 37 °C. The [^3H]-hypoxanthine incorporation assay was used to test compound activity in the specific parasite lines as described.^[32^] Briefly, compounds were dissolved in DMSO (10 mM) and diluted in a hypoxanthine-free culture medium. A limiting dilution was performed over a 64-fold range (6-step twofold dilution) in a 96-well plate in duplicates. For every starting concentration, a limiting dilution was performed over a 64-fold range (6-step twofold dilution) in a 96-well plate in two biological duplicates. Parasites were added at 100 µL to each well containing the compound to obtain a final parasitemia of 0.3% and haematocrit of 1.25%. The plates were incubated for 48 h before 0.25 µCi of [^3H]-hypoxanthine was added per well for an additional 24 h. Parasites were harvested on a glass-fiber filter with a Microbeta FilterMate cell harvester (Perkin Elmer, Waltham, USA) and radioactivity was counted using a MicroBeta2 liquid scintillation counter (Perkin Elmer, Waltham, US). The results were recorded, processed by subtraction of the mean background signal obtained from the uninfected RBC controls and expressed as percentage of untreated controls. The fifty percent inhibitory concentration (IC50) was calculated by using nonlinear, four parameter (variable slope) curve fitting as described ^[33^] after importing into GraphPad Prism (version 8.3.0).

`CN1CCN(Cc2ccc(O)c(NC(=O)c3cccc(Oc4cc(C(F)(F)F)ccn4)c3)c2)CC1` [Compound 31, N-(2-hydroxy-5-((4-methylpiperazin-1-yl)methyl)phenyl)-3-((4-(trifluoromethyl)pyridin-2-yl)oxy)benzamide] was tested, and the IC50 ([1]; Plasmodium falciparum, NF54, 72 h, read-out: IC50 mature (stage V) gametocytes, 72 h exposure, MitoTracker readout, N = 3) was 354 nM, the IC50 ([1]; read-out: IC50 mature (stage V) gametocytes, 72 h exposure, MitoTracker readout, N = 3) was under 500 nM and the “fold reduction in activity against the sexual stages compared to the asexual stage” value ([1]; stage V gametocytes vs NF54 asexual) was 91 fold. For the same compound, the IC50 (3D7^WT) was 2.4 ± 0.3 nM.
